Tests used:
human Cav1.2 = human Cav1.2 (Homo sapiens, UniProt Q13936); assay: calcium influx assay in HEK293 cells; assay type: cell-based
[1] = target: rabbit Cav1.1 (rCav1.1) α1 subunit (Oryctolagus cuniculus, UniProt P07293); assay: cryo-EM structure; assay type: binding
rabbit Cav1.1 α1 subunit = rabbit Cav1.1 α1 subunit (rabbit, UniProt P07293 1-1873); assay: cryo-EM structure
Sequence of rabbit Cav1.1 α1 subunit (P07293 whole entry): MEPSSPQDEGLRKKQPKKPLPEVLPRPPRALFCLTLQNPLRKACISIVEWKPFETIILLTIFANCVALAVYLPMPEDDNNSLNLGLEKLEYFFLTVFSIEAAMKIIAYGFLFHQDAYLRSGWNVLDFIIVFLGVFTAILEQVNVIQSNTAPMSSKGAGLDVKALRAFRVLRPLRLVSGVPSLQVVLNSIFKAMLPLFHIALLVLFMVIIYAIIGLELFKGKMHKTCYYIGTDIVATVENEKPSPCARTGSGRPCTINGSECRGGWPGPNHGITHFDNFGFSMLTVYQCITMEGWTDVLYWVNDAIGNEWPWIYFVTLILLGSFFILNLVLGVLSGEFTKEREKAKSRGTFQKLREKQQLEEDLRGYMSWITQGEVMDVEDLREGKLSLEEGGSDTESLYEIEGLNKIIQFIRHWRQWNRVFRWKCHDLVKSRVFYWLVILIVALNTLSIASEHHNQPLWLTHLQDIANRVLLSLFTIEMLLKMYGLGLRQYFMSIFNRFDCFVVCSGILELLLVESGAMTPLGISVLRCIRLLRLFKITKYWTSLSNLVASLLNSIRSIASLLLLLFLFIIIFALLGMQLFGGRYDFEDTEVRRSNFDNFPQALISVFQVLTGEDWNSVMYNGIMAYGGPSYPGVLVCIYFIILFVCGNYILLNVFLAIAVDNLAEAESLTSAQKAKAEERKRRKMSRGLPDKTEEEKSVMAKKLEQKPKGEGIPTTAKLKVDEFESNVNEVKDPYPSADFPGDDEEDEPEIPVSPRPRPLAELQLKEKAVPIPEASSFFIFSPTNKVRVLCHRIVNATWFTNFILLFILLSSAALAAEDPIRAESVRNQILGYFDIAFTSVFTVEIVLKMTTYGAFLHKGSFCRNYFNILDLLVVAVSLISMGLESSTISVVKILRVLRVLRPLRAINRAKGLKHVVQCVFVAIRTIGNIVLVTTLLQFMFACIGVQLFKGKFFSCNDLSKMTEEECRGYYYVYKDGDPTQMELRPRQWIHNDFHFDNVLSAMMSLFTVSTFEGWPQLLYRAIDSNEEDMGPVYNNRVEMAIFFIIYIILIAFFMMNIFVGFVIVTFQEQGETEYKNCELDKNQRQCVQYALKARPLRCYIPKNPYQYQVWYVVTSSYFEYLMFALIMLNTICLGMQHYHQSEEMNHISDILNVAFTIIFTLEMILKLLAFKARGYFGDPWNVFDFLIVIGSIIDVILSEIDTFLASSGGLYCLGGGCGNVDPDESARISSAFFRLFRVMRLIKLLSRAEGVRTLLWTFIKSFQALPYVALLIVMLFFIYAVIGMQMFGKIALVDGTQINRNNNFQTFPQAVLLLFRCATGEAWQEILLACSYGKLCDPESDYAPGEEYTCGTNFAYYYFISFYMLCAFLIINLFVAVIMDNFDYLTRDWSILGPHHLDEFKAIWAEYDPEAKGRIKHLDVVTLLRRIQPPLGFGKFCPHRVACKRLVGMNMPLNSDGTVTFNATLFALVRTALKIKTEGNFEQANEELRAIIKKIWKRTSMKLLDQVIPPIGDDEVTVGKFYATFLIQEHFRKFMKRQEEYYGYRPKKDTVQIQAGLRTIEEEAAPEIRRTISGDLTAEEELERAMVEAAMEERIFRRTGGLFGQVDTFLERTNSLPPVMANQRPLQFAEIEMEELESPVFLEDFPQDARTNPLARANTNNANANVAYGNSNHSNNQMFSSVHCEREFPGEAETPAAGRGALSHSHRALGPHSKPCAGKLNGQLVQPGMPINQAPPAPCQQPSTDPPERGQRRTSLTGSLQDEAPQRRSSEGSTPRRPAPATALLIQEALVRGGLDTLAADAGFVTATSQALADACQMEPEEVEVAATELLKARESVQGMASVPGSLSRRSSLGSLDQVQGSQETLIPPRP

Sequence of human Cav1.2 (Q13936 whole entry): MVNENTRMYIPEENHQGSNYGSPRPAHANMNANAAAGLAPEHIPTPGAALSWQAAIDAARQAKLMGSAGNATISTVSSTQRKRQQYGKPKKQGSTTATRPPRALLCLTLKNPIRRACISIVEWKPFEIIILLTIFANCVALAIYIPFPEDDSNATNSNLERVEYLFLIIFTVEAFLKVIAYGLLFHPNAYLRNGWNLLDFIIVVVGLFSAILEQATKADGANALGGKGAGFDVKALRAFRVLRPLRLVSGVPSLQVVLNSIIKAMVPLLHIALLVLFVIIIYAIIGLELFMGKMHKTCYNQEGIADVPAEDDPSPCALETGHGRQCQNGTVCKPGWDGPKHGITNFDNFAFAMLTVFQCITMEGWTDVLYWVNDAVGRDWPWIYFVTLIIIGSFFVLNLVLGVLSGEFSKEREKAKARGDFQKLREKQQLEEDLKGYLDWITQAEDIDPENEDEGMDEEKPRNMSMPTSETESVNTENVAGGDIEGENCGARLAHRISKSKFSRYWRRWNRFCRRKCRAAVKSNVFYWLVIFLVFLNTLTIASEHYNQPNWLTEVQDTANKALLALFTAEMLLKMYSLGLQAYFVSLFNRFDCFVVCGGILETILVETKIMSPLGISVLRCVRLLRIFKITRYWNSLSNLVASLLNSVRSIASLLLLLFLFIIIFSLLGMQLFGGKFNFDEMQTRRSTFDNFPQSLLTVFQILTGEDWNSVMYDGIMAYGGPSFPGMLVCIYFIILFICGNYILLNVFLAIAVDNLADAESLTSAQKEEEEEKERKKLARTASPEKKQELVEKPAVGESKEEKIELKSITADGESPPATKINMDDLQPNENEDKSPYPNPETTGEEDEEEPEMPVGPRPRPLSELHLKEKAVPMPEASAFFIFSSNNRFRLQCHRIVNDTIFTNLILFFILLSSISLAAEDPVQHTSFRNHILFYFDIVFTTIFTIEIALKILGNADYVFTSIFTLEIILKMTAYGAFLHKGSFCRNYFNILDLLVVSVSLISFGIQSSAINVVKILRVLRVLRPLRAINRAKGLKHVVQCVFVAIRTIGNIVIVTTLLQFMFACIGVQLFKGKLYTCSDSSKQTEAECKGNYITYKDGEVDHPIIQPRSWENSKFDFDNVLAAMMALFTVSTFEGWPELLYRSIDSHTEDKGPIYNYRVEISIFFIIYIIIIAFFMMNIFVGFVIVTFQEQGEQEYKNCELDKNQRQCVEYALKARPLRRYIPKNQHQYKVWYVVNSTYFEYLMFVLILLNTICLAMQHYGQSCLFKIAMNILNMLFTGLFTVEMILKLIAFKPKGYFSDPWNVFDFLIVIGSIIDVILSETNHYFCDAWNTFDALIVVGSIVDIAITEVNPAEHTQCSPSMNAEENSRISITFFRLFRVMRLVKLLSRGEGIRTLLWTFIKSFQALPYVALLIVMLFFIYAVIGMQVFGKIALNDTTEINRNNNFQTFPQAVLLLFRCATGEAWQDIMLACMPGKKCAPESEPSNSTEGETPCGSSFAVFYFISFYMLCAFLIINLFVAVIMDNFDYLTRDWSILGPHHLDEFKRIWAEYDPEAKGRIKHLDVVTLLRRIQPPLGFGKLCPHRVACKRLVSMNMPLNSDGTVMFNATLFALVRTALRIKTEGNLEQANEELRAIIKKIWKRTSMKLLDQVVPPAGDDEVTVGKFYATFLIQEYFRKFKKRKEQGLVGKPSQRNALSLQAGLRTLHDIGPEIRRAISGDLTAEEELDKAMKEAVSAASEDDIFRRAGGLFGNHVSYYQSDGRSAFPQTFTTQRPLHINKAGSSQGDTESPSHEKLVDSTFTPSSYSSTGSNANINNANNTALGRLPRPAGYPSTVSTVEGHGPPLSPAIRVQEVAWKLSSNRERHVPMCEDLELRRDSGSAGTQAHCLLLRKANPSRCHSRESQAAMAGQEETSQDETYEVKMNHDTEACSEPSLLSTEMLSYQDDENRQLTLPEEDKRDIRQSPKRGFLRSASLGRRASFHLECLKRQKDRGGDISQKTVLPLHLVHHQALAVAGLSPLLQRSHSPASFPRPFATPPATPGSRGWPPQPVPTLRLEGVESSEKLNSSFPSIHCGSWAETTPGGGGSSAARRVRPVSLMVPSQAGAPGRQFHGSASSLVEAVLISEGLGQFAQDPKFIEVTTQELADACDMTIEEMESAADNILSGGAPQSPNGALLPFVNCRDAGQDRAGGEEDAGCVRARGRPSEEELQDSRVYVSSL

## C#C[C@]1(C)[C@@H](O)[C@@H](COP(=O)(N[C@@H](C)C(=O)OC(C)C)Oc2ccccc2)O[C@H]1n1ccc(=O)[nH]c1=O (stereo partly drawn) [MNI-1]
Human Cav1.2
  IC50: > 100 µM

## CCCCc1oc2ccccc2c1C(=O)c1cc(I)c(OCCN(CC)CC)c(I)c1 [AMIO, amiodarone]
[1]
  cryo-EM structure (2.8 Å): AMIO occupies the same site as for DHP compounds, i.e., the III-IV fenestration enclosed by S5III, S6III, and S6IV

B1: rabbit γ1 subunit (natural protein, UniProt P19518 1-222, looked up)
chain: MSPTEAPKVRVTLFCILVGIVLAMTAVVSDHWAVLSPHMENHNTTCEAAHFGLWRICTKRIALGEDRSCGPITLPGEKNCSYFRHFNPGESSEIFEFTTQKEYSISAAAISVFSLGFLIMGTICALMAFRKKRDYLLRPASMFYVFAGLCLFVSLEVMRQSVKRMIDSEDTVWIEYYYSWSFACACAAFVLLFLGGISLLLFSLPRMPQNPWESCMDAEPEH
Rabbit Cav1.1 α1 subunit
  binding result: binds
